Experiments:
[1] = Cytotoxicity against NCI60 cell line; assay type: cell-based; settings: human
[2] = Cytotoxicity against NCI-H460 cells; assay type: cell-based; settings: human
[3] = Cytotoxicity against MDR HCT15 cells; assay type: cell-based; settings: human, MDR HCT-15 cells
HCC 2998 = experiment: Tumor growth inhibition against HCC2998 cells; assay type: functional; settings: Homo sapiens, read-out: Log TGI (converted)
HL-60 = experiment: Tumor growth inhibition against HL60 cells; assay type: functional; settings: Homo sapiens, read-out: Log TGI (converted)
[4] = Tumor growth inhibition of […] cells xenografted in immunodeficient mouse at 150 mg/kg/day after 25 days; assay type: functional; settings: Homo sapiens, 600 h

Compound	Log TGI [1]	pGI50 [1]	GI50 [2] [nM]	GI50 [3] [nM]	TGI (HCC 2998) [nM]	TGI (HL-60) [nM]	inhibition in vivo at 150 mg/kg/day [4] [%]
COc1ccc(-c2nccn2-c2cc(OC)c(OC)c(OC)c2)cc1	-4.16	5.34	1580	1150	–	–	–
COc1ccc(-c2cncn2-c2ccc(OC)cc2)cc1	-4.32	4.8	15500	19500	–	–	–
COc1cc(-n2cncc2-c2ccc3ccccc3c2)cc(OC)c1OC	-4.4	7.14	18	17	29.5	–	–
COc1cc(-c2nccn2-c2ccc3ccccc3c2)cc(OC)c1OC	-4.8	6.86	21	22	–	–	–
COc1cc(-n2ccnc2-c2ccc3ccccc3c2)cc(OC)c1OC	-4.68	6.82	37	51	–	–	–
COc1ccc(-n2ccnc2-c2cc(OC)c(OC)c(OC)c2)cc1	-4.32	5.45	2340	1150	–	–	–
COc1ccc(-c2cncn2-c2cc(OC)c(OC)c(OC)c2)cc1F	-4.51	7.4	< 10	< 10	–	< 28.8	–
COc1ccc(-c2cncn2-c2cc(OC)c(OC)c(OC)c2)cc1	-4.71	6.59	363	170	–	–	52
COc1ccc(-c2nccn2-c2ccc(OC)cc2)cc1	-4.19	4.76	17800	22900	–	–	–
COc1ccc(/C=C\c2cc(OC)c(OC)c(OC)c2)cc1O [COMBRETASTATIN A4]	-5.03	7	< 10	< 10	–	–	–
